In the NIST ThermoML archive (doi:10.1021/je201014c):

Conditions: 101.33 kPa, Liquid; for viscosity: Capillary tube (Ostwald / Ubbelohde) method; for mass density: Vibrating tube method

CN(C)C=O [dimethylformamide]
Conditions	mass density [kg/m3]	viscosity [mPa·s]
283.15 K	958.096	1.016
288.15 K	953.346	0.9545
293.15 K	948.584	0.8985
298.15 K	943.817	0.8455
303.15 K	939.042	0.799
308.15 K	934.255	0.7553
313.15 K	929.458	0.7172
318.15 K	924.65	0.6826
